Test results taken from patent publication US20180140578A1, “METHODS AND COMPOSITIONS FOR THE DIAGNOSIS AND SELECTIVE TREATMENT OF CANCER” (Board of Regents of the University of Texas System, priority 2016, published 2018).

Legend:
HCT-116 cells = test: Cell viability assay (CellTiter-Glo); format: cell-based, human; conditions: Homo sapiens, read-out: concentration required to reduce the viability by 50% (IC50); parental HCT-116 cells
Method: The identity for all human cell lines in this study was confirmed by short tandem repeat (STR) analysis. In addition, all human cell lines were confirmed to be mycoplasma free using a PCR based assay (Genatlantis). HCT-116 cells (ATCC) were grown in DMEM medium with 10% FBS and 2 mM L-glutamine. Lenti-X 293T cells (Clontech) were cultured in DMEM medium with 10% FBS and 2 mM L-glutamine. H1155 cells (a gift from Adi Gazdar and John Minna, UT Southwestern) were cultured in RPMI media with 5% FBS and 2 mM L-glutamine. SF9 cells (a gift from Hongtao Yu, UT Southwestern) were cultured in SF900 II serum free media (Life Technologies).
12-point dose responses were performed on 96-well assay plates with cell plating (1500-4000 cell per well) on day 1, compound addition on day 2, and survival measurement on day 5. Compounds were diluted in DMSO before adding to the cells. Final DMSO concentration was 0.5%. Cell survival assay was performed using CellTiter-Glo Luminescent Cell Viability Assay kit (Promega) that measures cellular ATP content. Luminescence was recorded by EnVison multimode plate reader (Perkin Elmer). IC50 was determined with GraphPad Prism using baseline correction (by normalizing to DMSO control), the asymmetric (five parameter) equation and least squares fit.

[1] = test system: HCT-116 cells expressing wild type or mutant RBM39; test: Transient transfection of RBM39 cDNA, crystal violet staining; format: cell-based, human; conditions: 2 μM indisulam
Method: RBM39 was PCR amplified from U2OS cDNA and cloned into pLVX IRES zsGreen1 (Clontech). Mutagenesis of RBM39 was performed using Q5 site-directed mutagenesis kit (NEB) and primers were designed using the NEBaseChanger web server (nebasechanger.neb.com/). For transient transfection, 0.1 million HCT-116 cells were seeded per well in a 12-well plate on day 1. On day 2, cells were transfected with 1 μg of plasmid (pLVX IRES zsGreen containing wild type or mutant RBM39). […] For crystal violet staining, cells on plates were stained with 0.05% crystal violet, 1% formaldehyde in 1×PBS for 20 min at room temperature, followed by several rinses with deionized water to remove free stain.

RBM39 = biological target: T1, RBM39 (Homo sapiens, UniProt Q14498+Q66K64); test: RBM39 degradation in cells (western blotting); format: cell-based; conditions: HCT-116 cells; dose dependent, evident as early as two hours after treatment
T1 construct: triggers the degradation of RBM39 in parental HCT-116 cells; endogenous in cells; host or cells: HCT-116
Method: (§1) Proteins were resolved on SDS-PAGE and transferred to 0.5 μm nitrocellulose membranes. Membranes were blocked in 5% milk TBST for 30 min, and then anti-RBM39 antibodies (HPA001591, Sigma-Aldrich) were added in 5% milk (1:5000) and incubated on a shaker overnight at 4° C. After three 5 min washes with TBST, membranes were incubated with HRP-conjugated goat anti-rabbit secondary antibody (Bio-Rad) for 2 hr at room temperature. After three 5 min washes with TBST, membranes were developed with ECL (enhanced chemiluminescence) substrates.

[2] = test system: RBM39 with indisulam-resistant mutations; test: RBM39 degradation in resistant cells (western blotting); format: cell-based, human; conditions: resistant cells harboring indisulam-resistant mutations
Method: as §1

RBM39 mRNA = test: qPCR quantification of RBM39 mRNA; format: cell-based, human; conditions: HCT-116 cells after indisulam treatment
Method: (§2) RNAs isolated from indisulam or siRNA treated cells were first treated with Turbo DNase (Life Technologies) to remove contaminating genomic DNA. After RNA cleanup with Quick-RNA MiniPrep kit (Zymo Research), 500 ng of total RNAs was converted into cDNAs with Multiscribe reverse transcriptase (Life Technologies). Exon skipping in TRIM27 was visualized by PCR amplification with 5′-[…]-3′ (SEQ ID NO: 3) and 5′-[…]-3′ (SEQ ID NO: 4) from cDNAs. […] Relative RNA levels were calculated based on 2^−ct method using Cyclophilin mRNA for normalization. The following primers were used for quantification of mRNA levels: […]
For measurement of RBM39 mRNA levels, the following primers were used: […]

[3] = test system: RBM39 in DCAF15−/− H1155 cells; test: RBM39 degradation in DCAF15−/− cells (western blotting); format: cell-based, human
Method: as §1
Two independent guide RNAs targeting DDB1, DDA1, DCAF15 were cloned into PX459. 0.2 million H1155 RBM39-AcGFP cells were transfected with PX459 sgRNA constructs and selected with 2 μg/ml puromycin to enrich for transfected cells. […] Cells were then trypsinized and the expression of RBM39-AGFP was quantified with flow cytometry. H1155 cells transfected with DCAF15 guide RNA were sparsely plated on 10 cm^2 plates and clones were isolated. Genomic DNA sequence flanking the cut site were amplified and sequenced to identify DCAF15−/− clones.

RBM39 G268V-3xFLAG = biological target: T2, RBM39 G268V-3xFLAG (Homo sapiens, UniProt Q66K64); test: In vivo polyubiquitination of RBM39 G268V; format: cell-based; conditions: following indisulam treatment
T2 construct: expressed in transfected cells; host or cells: 293T
Method: cDNAs encoding RBM39-3xFLAG, RBM39 G268V-3xFLAG, and DCAF15-V5 were cloned into the pCDNA3.1+vector. pCMV 8XHis Ub was a gift from William Kaelin (Dana Farber Cancer Institute). 0.4 million 293T cells were seeded per well on 6-well plates and allowed to attach overnight. 250 ng of pCMV 8XHis Ub, 500 ng of pCDNA3-DCAF15-V5, 10 ng of either pCDNA3-RBM39-3xFLAG or pCDNA3-RBM39 G268V-3xFLAG were transfected. […] Cells were lifted from the plates by pipetting, pelleted by centrifugation, and washed once with PBS. Purification of His-Ub tagged proteins was performed as described (5).

[4] = test system: TRIM27 mRNA and RBM3 mRNA; test: PCR validation of splicing changes; format: cell-based, human
Method: as §2

HCC78 and H1373 = test: 3 day viability assay, U2AF1 mutant lung cancer cell lines; format: cell-based, human
Excerpt: HCC78 and H1373 non-small cell lung cancer cell lines harbor a heterozygous mutations (C to T) in U2AF1 leading to a Serine to Phenylalanine mutation at position 34. FIG. 19 depicts Sanger sequencing of a RT-PCR product from both cell lines. […] Thus, mutations in splicing factor U2AF1 can be used as a biomarker for treating cancer, in a DCAF15 independent manner or together with the DCAF15 biomarker.

[5] = advanced stage patients with solid tumors; monotherapy; cited from earlier work

NS(=O)(=O)c1ccc(S(=O)(=O)Nc2cccc3c(Cl)c[nH]c23)cc1 [Indisulam, indisulam]
IC50 (HCT-116 cells): 560 nM | cell survival (crystal violet) ([1]; mock-transfected or wild type RBM39): not indisulam resistant | cell survival (crystal violet) ([1]; transient expression of eight different RBM39 mutants): conferred resistance | amount of RBM39 protein (RBM39): reduced | RBM39 protein levels [2]: no effect | RBM39 mRNA (RBM39 mRNA): no dose dependent decrease | RBM39 degradation in response to indisulam [3]: failed to degrade RBM39 | RBM39 G268V ubiquitination (RBM39 G268V-3xFLAG): not ubiquitinated | splicing of TRIM27 mRNA (RT-PCR) [4]: dose-dependent exon skipping | splicing of RBM3 mRNA (RT-PCR) ([4]; indisulam dose-dependent): intron retention | sensitivity of cancer cell lines harboring a mutation in U2AF1 (HCC78 and H1373): sensitive | stable disease [5]: 17-36 % of patients
